According to US11344564B1, “Method of treatment based on reduced monoamine oxidase a activity” (Lennham Pharmaceuticals, Inc., priority 2021, dated 2022):

Legend:
[1] = molecular target: T1, human MAO-B (Homo sapiens, UniProt P27338); experiment: in vitro metabolism of psilocin by human MAO-B; type: in vitro ADME; conditions: test compound 0.2 and 2 μM; protein 0.03, 0.1, 0.3 and 1 mg/ml; incubation 0-30 min, 37° C., pH 7.4, no cofactors (FIGS. 1C & 1D)
T1 sequence (P27338 1-520): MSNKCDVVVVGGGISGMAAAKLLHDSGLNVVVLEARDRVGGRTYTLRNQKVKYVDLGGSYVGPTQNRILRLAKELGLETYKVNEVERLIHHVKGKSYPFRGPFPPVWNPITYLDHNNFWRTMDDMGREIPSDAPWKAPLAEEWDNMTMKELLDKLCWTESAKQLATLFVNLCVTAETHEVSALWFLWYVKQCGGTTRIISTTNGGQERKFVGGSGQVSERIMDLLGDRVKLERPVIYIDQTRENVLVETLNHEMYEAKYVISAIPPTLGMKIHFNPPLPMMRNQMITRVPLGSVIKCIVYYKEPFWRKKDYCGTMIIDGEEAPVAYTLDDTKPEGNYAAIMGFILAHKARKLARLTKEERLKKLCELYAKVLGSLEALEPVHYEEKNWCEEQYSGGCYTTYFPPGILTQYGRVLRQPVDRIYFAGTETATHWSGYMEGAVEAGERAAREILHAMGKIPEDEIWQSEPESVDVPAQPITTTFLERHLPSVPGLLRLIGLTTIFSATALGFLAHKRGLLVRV

[2] = molecular target: T2, human MAO-A (Homo sapiens, UniProt P21397); experiment: in vitro metabolism of psilocin by human MAO-A; type: in vitro ADME; conditions: test compound 0.2 and 2 μM; protein 0.03, 0.1, 0.3 and 1 mg/ml; incubation 0-30 min, 37° C., pH 7.4, no cofactors (FIGS. 1A & 1B)
T2 sequence (P21397 1-527): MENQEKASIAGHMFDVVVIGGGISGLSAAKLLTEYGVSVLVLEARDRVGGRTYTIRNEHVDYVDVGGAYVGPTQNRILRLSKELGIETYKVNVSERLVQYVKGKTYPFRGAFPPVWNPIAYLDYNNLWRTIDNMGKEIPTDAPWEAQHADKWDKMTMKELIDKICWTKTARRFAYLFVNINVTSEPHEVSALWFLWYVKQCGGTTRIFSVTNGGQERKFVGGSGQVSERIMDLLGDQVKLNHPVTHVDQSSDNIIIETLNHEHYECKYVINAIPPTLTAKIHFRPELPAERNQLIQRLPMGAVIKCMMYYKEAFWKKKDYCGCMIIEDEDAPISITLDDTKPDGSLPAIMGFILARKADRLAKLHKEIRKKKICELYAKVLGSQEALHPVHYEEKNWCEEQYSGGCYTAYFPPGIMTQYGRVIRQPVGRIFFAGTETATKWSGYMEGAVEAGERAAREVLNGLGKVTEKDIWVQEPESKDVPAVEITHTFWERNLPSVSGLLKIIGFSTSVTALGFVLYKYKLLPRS

CN(C)CCc1c[nH]c2cccc(O)c12 [psilocin, 4-hydroxy-N,N-dimethyltryptamine]
metabolism by human MAO-B [1]: not human MAO-B | metabolism by human MAO-A [2]: is metabolized by human MAO-A
